As usually defined, the IC50 is the point on the concentration scale where inhibition reaches its midpoint.

Here are results for 56 compounds from US20110053897A1 (IRM LLC, priority 2009, published 2011).

The target in the assay is T1, Syk kinase (Homo sapiens, UniProt P43405).
T1 construct: purchased
In words: Syk kinase inhibition, Caliper LabChip off-chip mobility-shift kinase assay. It is filed as biochemical. As to conditions: Caliper LabChip assay; read-out: Syk Enzyme IC50. In a few lines:
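Purified Syk pre-incubated 15 min with compound in 100 mM HEPES pH 7.5, 1 mM DTT, 10 mM MgCl2 or MnCl2, 0.002% Brij-35, then 1.5 μM fluorescein peptide and ATP at apparent KM added; 1–1.5 h at room temperature, 4% DMSO, EDTA stop. Microfluidic mobility-shift product/substrate conversion gave % inhibition; IC50 from 12-point series (10–0.00003 μM) by 4-parameter fit.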
Take `CC(C)(C)Nc1nc(Nc2cc(C(O)CN)ccn2)cc2ccn(CCO)c(=O)c12` (centres unmarked) [compound 612, 6-(4-(2-amino-1-hydroxyethyl)pyridin-2-ylamino)-8-(tert-butylamino)-2-(2-hydroxyethyl)-2,7-naphthyridin-1(2H)-one]: the IC50 came out at 453 nM.

Regarding `CC(C)(C)Nc1nc(Nc2cc(C(O)C(F)(F)F)ccn2)cc2ccn(CC(N)=O)c(=O)c12` (centres unmarked) [compound 613], the IC50 worked out at 142 nM.

`CC1(Nc2nc(Nc3cc(C(O)C(F)(F)F)ccn3)cc3ccn(CC(N)=O)c(=O)c23)CC1` (centres unmarked) [compound 614]: the half-maximal inhibitory concentration (IC50) is 66 nM.

With `CC(C)(C)Nc1nc(Nc2cc(C(F)F)ccn2)cc2ccn(CCO)c(=O)c12` [compound 615], the concentration for half-maximal inhibition (IC50) stood at 9 nM.

Consider `CC(C)(C)Nc1nc(Nc2cc(C(C)(C)C)ccn2)cc2ccn(CCO)c(=O)c12` [compound 616], for which the IC50 is 1350 nM.

`CC1(Nc2nc(Nc3cc(C4(O)COC4)ccn3)cc3ccn(CC(N)=O)c(=O)c23)CC1` [compound 617]: the IC50 is 64 nM.

Turning to `C=Cc1cc(Nc2cc3ccn(CCO)c(=O)c3c(NC(C)(C)C)n2)ncn1` [compound 618, 8-(tert-butylamino)-2-(2-hydroxyethyl)-6-(6-vinylpyrimidin-4-ylamino)-2,7-naphthyridin-1(2H)-one], the 50% inhibitory concentration (IC50) turned out to be 121 nM.

Consider `CCc1cc(Nc2cc3ccn(CCO)c(=O)c3c(NC(C)(C)C)n2)ncn1` [compound 619, 8-(tert-butylamino)-6-(6-ethylpyrimidin-4-ylamino)-2-(2-hydroxyethyl)-2,7-naphthyridin-1(2H)-one], for which the concentration for half-maximal inhibition (IC50) was determined as 102 nM.

Turning to `CC1(Nc2nc(Nc3cc(C(C)(C)O)ncn3)cc3ccn(CC(N)=O)c(=O)c23)CC1` [compound 620], the concentration for half-maximal inhibition (IC50) worked out at 148 nM.

In the case of `COC/C=C/c1cc(Nc2cc3ccn(CCO)c(=O)c3c(NC(C)(C)C)n2)ncn1` [compound 621], the half-inhibitory concentration (IC50) was found to be 94 nM.

For `COCCCc1cc(Nc2cc3ccn(CCO)c(=O)c3c(NC(C)(C)C)n2)ncn1` [compound 622], the half-maximal inhibitory concentration (IC50) amounted to 85 nM.

Take `CC(C)(C)Nc1nc(Nc2cc(C3=CCCCC3)ncn2)cc2ccn(CCO)c(=O)c12` [compound 623]: the IC50 was 612 nM.

On to `CC(C)(C)Nc1nc(Nc2cc(C3=CCCCO3)ncn2)cc2ccn(CCO)c(=O)c12` [compound 624], for which the IC50 was found to be 590 nM.

On to `CC(C)(C)Nc1nc(Nc2cc(C3CCCCC3)ncn2)cc2ccn(CCO)c(=O)c12` [compound 625], for which the half-maximal inhibitory concentration (IC50) turned out to be 452 nM.

Consider `CC(C)(C)Nc1nc(Nc2cc(C3CCCCO3)ncn2)cc2ccn(CCO)c(=O)c12` (centres unmarked) [compound 626], for which the IC50 was 756 nM.

`CC(C)(C)Nc1nc(Nc2cc(/C=C/CCO)ncn2)cc2ccn(CCO)c(=O)c12` [compound 627]: the half-inhibitory concentration (IC50) was found to be 60 nM.

`CC(C)(C)Nc1nc(Nc2cc(CCCCO)ncn2)cc2ccn(CCO)c(=O)c12` [compound 629]: the IC50 was determined as 62 nM.

On to `CC1(O)CN(c2cc(Nc3cc4ccn(CCO)c(=O)c4c(NC(C)(C)C)n3)ncn2)C1` [compound 630, 8-(tert-butylamino)-6-(6-(3-hydroxy-3-methylazetidin-1-yl)pyrimidin-4-ylamino)-2-(2-hydroxyethyl)-2,7-naphthyridin-1(2H)-one], for which the half-inhibitory concentration (IC50) was determined as 204 nM.

On to `CC(C)(C)Nc1nc(Nc2cc(N3CC(O)C3)ncn2)cc2ccn(CCO)c(=O)c12` [compound 631], for which the half-inhibitory concentration (IC50) amounted to 233 nM.

For `CC(C)(C)Nc1nc(Nc2cc(N3CCC(=O)CC3)ncn2)cc2ccn(CCO)c(=O)c12` [compound 632], the IC50 turned out to be 117 nM.

As for `CC(=O)c1cc(Nc2cc3ccn(CCO)c(=O)c3c(NC(C)(C)C)n2)ncn1` [compound 633, 6-(6-acetylpyrimidin-4-ylamino)-8-(tert-butylamino)-2-(2-hydroxyethyl)-2,7-naphthyridin-1(2H)-one], the IC50 is 273 nM.

For the compound `CC(C)(C)Nc1nc(Nc2cc(N3CCC(O)CC3)ncn2)cc2ccn(CCO)c(=O)c12` [compound 634], the IC50 came to 161 nM.

For the compound `CC(C)(C)Nc1nc(Nc2cc(-c3c[nH]nc3C(F)(F)F)ncn2)cc2ccn(CCO)c(=O)c12` [compound 635, 8-(tert-butylamino)-2-(2-hydroxyethyl)-6-(6-(3-(trifluoromethyl)-1H-pyrazol-4-yl)pyrimidin-4-ylamino)-2,7-naphthyridin-1(2H)-one], the IC50 came to 314 nM.

In the case of `Cn1cc(-c2cc(Nc3cc4ccn(CCO)c(=O)c4c(NC(C)(C)C)n3)ncn2)cn1` [compound 636], the 50% inhibitory concentration (IC50) came to 237 nM.

For the compound `COc1ncc(-c2cc(Nc3cc4ccn(CCO)c(=O)c4c(NC(C)(C)C)n3)ncn2)cn1` [compound 637], the 50% inhibitory concentration (IC50) turned out to be 60 nM.

`CC(C)(C)Nc1nc(Nc2cc(C3CCNCC3)ncn2)cc2ccn(CCO)c(=O)c12` [compound 638]: the IC50 was 96 nM.

With `CC(C)(C)Nc1nc(Nc2cc(-c3cn[nH]c3)ncn2)cc2ccn(CCO)c(=O)c12` [compound 639], the half-inhibitory concentration (IC50) was determined as 285 nM.

As for `CC(C)(C)Nc1nc(Nc2cc(C3CCN(CCO)CC3)ncn2)cc2ccn(CCO)c(=O)c12` [compound 640], the IC50 came out at 116 nM.

As for `CC(C)(O)COc1cc(Nc2cc3ccn(CCO)c(=O)c3c(NC(C)(C)C)n2)ncn1` [compound 641], the IC50 came to 56 nM.

Take `CC(C)(C)Nc1nc(Nc2cc(OCCO)ncn2)cc2ccn(C[C@H](O)CO)c(=O)c12` [compound 642]: the IC50 is 29 nM.

For the compound `C[C@@H](CO)Oc1cc(Nc2cc3ccn(C[C@H](O)CO)c(=O)c3c(NC(C)(C)C)n2)ncn1` [compound 643, 8-(tert-butylamino)-2-((S)-2,3-dihydroxypropyl)-6-(6-((S)-1-hydroxypropan-2-yloxy)pyrimidin-4-ylamino)-2,7-naphthyridin-1(2H)-one], the IC50 is 9 nM.

Regarding `CC(C)(C)Nc1nc(Nc2cc(OC3CCNCC3)ncn2)cc2ccn(CCO)c(=O)c12` [compound 645, 8-(tert-butylamino)-2-(2-hydroxyethyl)-6-(6-(piperidin-4-yloxy)pyrimidin-4-ylamino)-2,7-naphthyridin-1(2H)-one], the IC50 is 5 nM.

Regarding `CC(C)(C)Nc1nc(Nc2cc(OC3CCN(CCO)CC3)ncn2)cc2ccn(CCO)c(=O)c12` [compound 646], the half-inhibitory concentration (IC50) came to 9 nM.

Consider `COCCN1CCC(Oc2cc(Nc3cc4ccn(CCO)c(=O)c4c(NC(C)(C)C)n3)ncn2)CC1` [compound 647, 8-(tert-butylamino)-2-(2-hydroxyethyl)-6-(6-(1-(2-methoxyethyl)piperidin-4-yloxy)pyrimidin-4-ylamino)-2,7-naphthyridin-1(2H)-one], for which the concentration for half-maximal inhibition (IC50) turned out to be 14 nM.

With `CN1CCC(Oc2cc(Nc3cc4ccn(CCO)c(=O)c4c(NC(C)(C)C)n3)ncn2)CC1` [compound 648, 8-(tert-butylamino)-2-(2-hydroxyethyl)-6-(6-(1-methylpiperidin-4-yloxy)pyrimidin-4-ylamino)-2,7-naphthyridin-1(2H)-one], the IC50 was 6 nM.

`CN1CCC(Oc2cc(Nc3cc4ccn(C[C@H](O)CO)c(=O)c4c(NC(C)(C)C)n3)ncn2)CC1` [compound 649]: the IC50 was determined as 6 nM.

Regarding `Cc1ccnc(Nc2cc3ccn(CCO)c(=O)c3c(Nc3ccc(C(=O)N4CCOCC4)c(C)c3)n2)c1` [compound 650], the concentration for half-maximal inhibition (IC50) was 186 nM.

For the compound `COCCCN(C)S(=O)(=O)c1ccc(Nc2nc(Nc3cc(C)ccn3)cc3ccn(C)c(=O)c23)cc1` [compound 651], the IC50 was 2410 nM.

With `COCCNC(=O)c1ccc(Nc2nc(Nc3cc(C)ccn3)cc3ccn(C)c(=O)c23)cc1` [compound 652], the IC50 was 660 nM.

As for `Cc1ccnc(Nc2cc3ccn(C)c(=O)c3c(Nc3ccc(OCCN4CCOCC4)cc3)n2)c1` [compound 653], the half-maximal inhibitory concentration (IC50) came out at 333 nM.

`Cc1ccnc(Nc2cc3ccn(C)c(=O)c3c(Nc3ccc(C)c(S(N)(=O)=O)c3)n2)c1` [compound 654]: the half-maximal inhibitory concentration (IC50) came to 250 nM.

Consider `Cc1c2ccc(Nc3nc(Nc4cnccn4)cc4ccn(CCO)c(=O)c34)cc2nn1C` [compound 656], for which the IC50 is 168 nM.

For the compound `O=c1[nH]ccc2cc(NC3CCC(O)CC3)nc(Nc3ccc(N4CCOCC4)cc3)c12` (centres unmarked) [compound 657], the IC50 is 152 nM.

Turning to `Cn1cc2cc(Nc3nc(Nc4c[n+]([O-])ccn4)cc4ccn(CCO)c(=O)c34)ccc2n1` [compound 658], the IC50 was 99 nM.

Consider `Cn1cc2cc(Nc3nc(Nc4cnccn4)cc4ccn(CCO)c(=O)c34)ccc2n1` [compound 659], for which the IC50 worked out at 103 nM.

`CC(C(N)=O)n1ccc2cc(Nc3cnccn3)nc(NC(C)(C)C)c2c1=O` (centres unmarked) [compound 660]: the IC50 was 13 nM.

As for `CC(C)(C)Nc1nc(Nc2cnccn2)cc2ccn(CCC(N)=O)c(=O)c12` [compound 661], the IC50 was 10 nM.

In the case of `CC(C)(C)Nc1nc(Nc2cnccn2)cc2ccn(CC(N)=O)c(=O)c12` [compound 662], the IC50 was 17 nM.

For `CC(C)(C)Nc1nc(-c2cnc(N)nc2)cc2ccn(CC(N)=O)c(=O)c12` [compound 663], the IC50 is 43 nM.

`CC(C)(C)Nc1nc(Nc2cnccn2)cc2ccn(CC(O)CO)c(=O)c12` (centres unmarked) [compound 664, 8-(tert-butylamino)-2-(2,3-dihydroxypropyl)-6-(pyrazin-2-ylamino)-2,7-naphthyridin-1(2H)-one]: the IC50 is 7 nM.

Turning to `CC(C(N)=O)n1ccc2cc(-c3cnc(N)nc3)nc(NC(C)(C)C)c2c1=O` (centres unmarked) [compound 665], the IC50 was 5 nM.

Consider `CC(C)(C)Nc1nc(-c2cnc(N)nc2)cc2c(Cl)cn(CCO)c(=O)c12` [compound 666], for which the IC50 was found to be 28 nM.

`CC(C)(C)Nc1nc(-c2cnc(N)nc2)cc2ccn(CC(=O)O)c(=O)c12` [compound 667]: the IC50 came out at 23 nM.

As for `CC(C)(C)Nc1nc(Nc2cnccn2)cc2ccn(C[C@H](O)CO)c(=O)c12` [compound 669], the IC50 is 6 nM.

With `CC(C)(Nc1nc(Nc2cnccn2)cc2ccn(CCO)c(=O)c12)C1CC1` [compound 670], the IC50 was 89 nM.

On to `Cc1cn(CCO)c(=O)c2c(NC(C)(C)C)nc(-c3cnc(N)nc3)cc12` [compound 671], for which the concentration for half-maximal inhibition (IC50) came out at 13 nM.
